Measurements published in patent publication US20220142985A1, “AGENTS FOR TREATMENT OF ALCOHOL USE DISORDER” (SERVICIO ANDALUZ DE SALUD, priority 2018, published 2022).

How the values were obtained:
[1] = system: Wistar rats; experiment: Alcohol consumption in the two-bottle choice model (Wistar rats, 10% alcohol); assay type: in vivo, rat; settings: 1 mg/kg, P<0.05, FIG. 2A
Experimental: (§1) For the alcohol self-administration studies, 48 adult male Wistar rats (8 per group) (Harlan, Barcelona, Spain) weighing 375-425 g at the start of the experiments were individually housed in a 12-hour light/dark cycle (turned off at 12:00 p.m.) in a room at constant temperature (23±1° C.). Standard food and tap water were available ad libitum in the house cage. The animals were allowed to acclimate to the housing facilities for 2 weeks before the beginning of the alcohol self-administration protocol. For oxycodone self-administration, male Long-Evans rats (275-325 g) (Charles-River Laboratories, Raleigh, N.C.) were used throughout this study. Upon arrival, they were individually housed in a facility for animals under an inverted 12-h light/dark cycle (light turned on at 7:00 p.m.) with free access to food and water. They were allowed to acclimate to the new environment for at least 7 days before the start of the study. For alcohol consumption in the two-bottle choice paradigm, male Wistar rats weighing 250 g at the start of the experiments, or genetically selected Marchigian Sardinian (msP) male rats that prefer alcohol were used.
Voluntary alcohol intake was evaluated in a two-bottle choice test, as previously described [Stopponi et al., 2011. […] Intakes were recorded daily 2, 8, and 24 hours after the administration of OLHHA. Alcohol, water, and food intake were monitored daily. […]

[2] = system: adult male Wistar rats; experiment: Alcohol self-administration model; assay type: in vivo, rat; settings: for EC50 for inhibition of alcohol self-administration: acute administration 30 minutes before the session, 10% alcohol, non-linear regression, IC = confidence interval
Experimental: as §1
Animals were trained for the alcohol self-administration as previously described (Cippitelli et al., 2005. Eur J Neurosci. 21 (8):2243-51), in the room (Letica, model LE 850, Panlab, Barcelona, Spain) enclosed in sound-attenuating cages and equipped with an exhaust fan. The chambers were equipped with two retractable levers, one located on each side of a water pan.
The active lever side is equally distributed between sessions to prevent the development of location preferences. […] All the operant alcohol sessions lasted for 30 minutes per day 5 d/week (Monday to Friday). The amount of responses and the immersion presentations were automatically recorded by the computer software. The animals were weighed daily before the alcohol self-administration sessions. Training was carried out using a modification of the conventional saccharin fading method (Samson et al., 1999) described in Alen et al., 2009 (Nicotine Tob Res. 11 (11): 1304-11). For the first 3 days of training, the animals received a 0.2% saccharin solution in the dipper to facilitate the acquisition of the lever pressure level. After that point, the following sequence in a fixed ratio 1 was used: 0.16% saccharin and 2% alcohol for three sessions, 0.12% saccharin and 4% alcohol for three sessions, 0.08% saccharin and 6% alcohol for four sessions, 0.04% saccharin and 8% alcohol for four sessions, 0.02% saccharin plus 10% alcohol, and finally 10% alcohol alone for the remaining sessions. The first investigation was relatively similar, followed by a period of at least 6 weeks with access to alcohol (10% w/v). ciglitazone (0.01, 1.5, and 20 mg/kg), OEA (0.1, 1.5, and 20 mg/kg), WY 14643 (0.1, 5, 20, and 40) mg/kg), rimonabant (0.03, 0.3, 1, and 3 mg/kg), OLHHA (0.01, 0.1, 1, and 5 mg/kg), and NF 10-360 (1 mg/kg). The medicinal products were injected 30 minutes before the self-administration session. The animals were then left for a period of 24 hours, and then 30 minutes daily. The EtOH self-administration sessions were resumed and monitored.
(§2) GraphPad Prism v5.04 (GraphPad Software, San Diego, Calif., USA). Data was represented by means±SEM. EC50 values for the inhibition of alcohol, cocaine, or oxycodone self-administration were calculated using built-in non-linear regression equations. Supplementation with alcohol and the analysis of the effects of variability (ANOVA) with repeated measures (factors: treatment and treatment). Plasma metabolic parameters, cytokines, and liver mRNA resulting from the circulation expression were analyzed by means of a two-way ANOVA (factors: treatment (vehicle/OLHHA) and access to beverage ([…]/water)), and a multiple post hoc comparison test (Bonferroni) was performed. The p-value less than 0.05 was considered to be statistically significant.

[3] = system: Long-Evans rats; experiment: Oxycodone self-administration; assay type: in vivo, rat; settings: FIG. 3G
Experimental: as §1, with “used. […]” for “used.”
Oxycodone self-administration is carried out in an operant chamber with two response levers and a 15 W house light (Med Associates Inc., Georgia, Vt., USA). […] The response of each animal has been recorded throughout the entire training and testing process. […]

[4] = Plasma metabolite and cytokine measurements after repeated OLHHA in msP rats; assay type: in vivo; settings: 5 mg/kg daily
Experimental: (§3) Voluntary alcohol intake was evaluated in a two-bottle choice test, as previously described [Stopponi et al., 2011. Biol Psychiatry. 69(7):642-]. Wistar rats or rats selected due to their alcohol preference (msP) were trained to drink water, 10% alcohol (v/v) (Wistar), or 20% alcohol (msP) for 24 hours per day until reaching a stable alcohol intake baseline. At this point, the rats were divided into different groups (n=9-10/group) to be treated with vehicle, NF 10-360 (0 or 1 mg/kg), or OLHHA (5 mg/kg). In the case of msP rats, treatment with OLHHA continued for 14 consecutive days, and the drug or vehicle was administered once a day before the start of the dark period of the light/dark cycle. Intakes were recorded daily 2, 8, and 24 hours after the administration of OLHHA. Alcohol, water, and food intake were monitored daily. The animals were sacrificed on day 14, 2 hours after the last administration of OLHHA.
(§4) The rats were sacrificed 2 hours after the last dose. Treated animals and animals treated with OLHHA were anesthetized with sodium pentobarbital (50 mg kg-1, i.p.), and blood and liver samples were taken. The blood was centrifuged (2100 g for 8 min, 4° C.) and the plasma was kept for later analysis. The liver samples were rapidly frozen in liquid N^2 and stored at −80° C. until analysis.
The following metabolites, metabolic hormones, and cytokines were measured in plasma: metabolites glucose, triglycerides, cholesterol, uric acid, urea, creatinine, aspartate transaminase (GOT), alanine transaminase (GPT), interleukin-6, tumor necrosis factor α (TNF-a). They were analyzed in an automatic Hitachi 737 analyzer (Hitachi, Tokyo, Japan) according to the manufacturer's instructions. Levels of leptin, IL-6, and TNF-α were measured using commercial rat enzyme-linked immunosorbent assay kits (Abcam, Cambridge, United Kingdom).
as §2

[5] = system: Marchigian Sardinian (msP) male rats; experiment: Alcohol consumption in the two-bottle choice model (msP rats that prefer alcohol, 20% alcohol); assay type: in vivo, rat; settings: 5 mg/kg daily
Experimental: as §1, §3

[6] = system: liver mRNA of lipogenic enzymes, cytochrome c oxidase 4 and PPARα; experiment: Liver mRNA expression by RT qPCR after repeated OLHHA in msP rats; assay type: in vivo, rat; settings: 5 mg/kg daily
Experimental: as §3, §4
Real-time quantitative polymerase chain reaction (RT qPCR) was used to measure the relative quantification of the mRNA levels of the enzymes and proteins related to the oxidation of hand lipogenic fatty acids, as described in previous studies with OLHHA. [Decara et al., 2015. Dis Model Mech. 8(10): 1213-25]. Total mRNA was isolated using the Trizol® method according to the manufacturer's instructions (Gibco BRL Life Technologies, Baltimore, Md., USA). Resulting cDNA was used as templates for RT qPCR with an iCycler system (BioRad) using the Quanti-Test SYBR Green PCR kit (Qiagen, Hilden, Germany). The […] were provided by Sigma-Proligo (Proligo France SAS, Paris, France). Quantification was performed according to the following criteria [Decara et al., 2015. Dis Model Mech. 8(10): 1213-25]. The absolute values of each sample were normalized to observe β-actin mRNA (constitutive gene), which was used as a standard reference.
as §2, with “Supplementation with alcohol and the analysis of the effects of variability (ANOVA) with repeated measures (factors: treatment and treatment).” left out, “The p-value less than 0.05 was considered to be statistically significant.” left out

In the case of `CCCCCNC(=O)c1ccc(NC(=O)c2cccc(CN3C(=O)OC[C@H]3Cc3ccccc3)c2)cc1` [NF 10-360, 3-((4-benzyl-2-oxooxazolidin-3-yl)methyl)-N-(4-(pentylcarbamoyl)phenyl)benzamide], the voluntary alcohol intake [1] was “reduced alcohol intake” and the “operant responses to a 10% ethanol solution (alcohol self-administration)” value ([2]; 1 mg/kg, P<0.01, FIG. 2B) was “reduced operant responses”.

In the case of `CCCCCCCC/C=C\CCCCCCCC(=O)NCCO` [OEA, oleoylethanolamide], the “EC50 for inhibition of alcohol self-administration” value (from here on “EC50 for inhibition”) [2] was 6.5 (IC=3.2 to 13.2) mg/kg.

With `CCCCCCCC/C=C\CCCCCCCC(=O)NC(C)Cc1ccc(O)c(O)c1` (stereo not drawn) [OLHHA, N-[1-(3,4-dihydroxyphenyl)propan-2-yl]oleamide] the “maximum inhibition of oxycodone self-administration” value [3] was 45 % of the control responses, the “EC50 for reduction of oxycodone self-administration” value ([3]; non-linear regression, IC = confidence interval) was 11.3 mg/kg and the “toxicity: creatinine” value ([4]; msP rats, FIG. 4F) was “no impact”. For the same compound, the “inflammation: plasma concentrations of IL-6” value ([4]; msP rats, FIG. 4I) was “no effect”, the “inflammation: plasma concentrations of TNF” value ([4]; msP rats, FIG. 4J) was “no effect” and the “toxicity: transaminases” value ([4]; msP rats, FIGS. 4G and 4H) was “no impact”. For the same compound, the circulating triglycerides ([4]; msP rats, P<0.001, FIG. 4B) was “reduced”, the circulating cholesterol ([4]; msP rats, P<0.001, FIG. 4C) was “reduced” and the circulating uric acid ([4]; msP rats, P<0.01, FIG. 4D) was “reduced”. The glucose levels ([4]; rats exposed to alcohol, P<0.02, FIG. 4A) was “slightly reducing”, the “alcohol self-administration tested 24 hours after administration” value ([2]; 24 hours after administration, FIG. 3B) was “absence of effects” and the “EC50 for inhibition” value [2] was 0.2 mg/kg. The “total alcohol intake recorded throughout treatment” value ([5]; 14 days, P<0.05, FIG. 3F) was “reduced significantly”, the “alcohol intake 2 hours after injection” value ([5]; P<0.0001, FIG. 3C) was “reduced alcohol intake” and the “alcohol intake 8 h after administration” value ([5]; P<0.001, FIG. 3D) was “also observed”. For the same compound, the “alcohol intake after 24 h” value ([5]; P=0.047, FIG. 3E) was “virtually disappeared”, the “expression of mRNA of Fasn in liver” value ([6]; P<0.001, FIG. 4M) was “inhibited” and the “expression of PPAR receptor in liver” value ([6]; P<0.001, FIG. 4O) was “increased”. The “expression of mRNA of SCD1 in liver” value ([6]; P<0.01) was “inhibited” and the “expression of cytochrome c oxidase 4 in liver” value ([6]; P<0.01, FIG. 4N) was “increased”.

In the case of `Cc1c(C(=O)NN2CCCCC2)nn(-c2ccc(Cl)cc2Cl)c1-c1ccc(Cl)cc1` [Rimonabant, rimonabant], the “EC50 for inhibition” value [2] was 0.5 (IC=0.5 to 1.1) mg/kg and the “maximum inhibition of alcohol self-administration (rank among reference ligands)” value ([2]; reference ligands, FIG. 1) was “achieved maximum inhibition”.

For `Cc1cccc(Nc2cc(Cl)nc(SCC(=O)O)n2)c1C` [WY14643, pirinixic acid], the “EC50 for inhibition” value [2] was 23.6 (IC=11.3 to 60.9) mg/kg.

With `CC1(COc2ccc(CC3SC(=O)NC3=O)cc2)CCCCC1` (stereo not drawn) [ciglitazone] the “EC50 for inhibition” value [2] was 5.9 (IC=2.7 to 15.7) mg/kg.
